From US10300058B2, “Tyrosine kinase inhibitor and uses thereof” (Xuanzhu Pharma Co., Ltd., priority 2014, dated 2019)

Legend:
[1] = Pharmacokinetics in nude mouse; format: in vivo; conditions: female, BALB/c nude, plasma
Description: Test animal: female nude mouse (BALB/c), weight: 20-25 g/mouse.
Solvent for intraveneous injection (iv): 5% DMSO+10% PEG400+85% (28% HP-β-CD)
Solvent for intragastric administration (po): 2% HPC+0.1% Tween 80
0.1283 mL and 0.1059 mL 1M hydrochloric acid solution were separately added to adjust pH to 4.
Compound 2, 27: Compound 27 (3.18 mg) and Compound 2 (3.17 mg) were weighed, respectively, and solvent for intraveneous injection was added to prepare a clear and transparent solution at a theoretical concentration of 1.0 mg/mL.
After homogeneous dispersion, a suspension at a theoretical concentration of 1.0 mg/mL was obtained.
Collection time point: 0.083 h, 0.25 h, 0.5 h, 1 h, 2 h, 4 h, 6 h, 8 h after administration.
60 μL whole blood was collected from intraocular canthus at each time point, and was centrifuged at 8000 r/min for 6 min in a low-temperature centrifuge to separate plasma; the plasma was stored in a refrigerator at −80° C.
The plasma sample of Compound 2 was analyzed by means of protein precipitation: 10 μL plasma was transferred to a 1.5 mL EP tube, 10 μL blank plasma was added, and the mixture was mixed homogeneously under vortexing. 200 μL internal standard (acetonitrile solution containing 25 ng/mL CNX-2006) was added; the resultant mixture was vortexted for 3 min, and then centrifuged at 12000 rpm for 5 min; 150 μL supernatant was accurately taken, to which 50 μL purified water was added. The resultant mixture was vortexed for 3 min and analyzed by LC-MS/MS.

[2] = tested on: H1975 cell (EGFR-T790M/L858R double mutation); experiment: In vitro cytologic activity, Celltiter-Glo, H1975 cells; format: cell-based, human; conditions: for IC50: Homo sapiens, NCI-H1975, 72 h, 72 h, Celltiter-Glo
Description: (§1) 1.1 Preparation of Cell Suspension
(§2) Culture medium was removed from culture bottle;
(§3) PBS was added to wash the cells; • pancreatin was added for digestion, and the cells were collected by centrifugation; • the cells were resuspended in a culture medium containing 10% fetal bovine serum, counted and adjusted to a concentration of 2×10^4/mL or 3×10^4/mL (cell viability must be greater than 90%); • the cell suspension was added to a 96-well plate, at 100 μL for each well, i.e., 2000/well for H1975 cell; 3000/well for A431 cell; and • the cells were cultured at 37° C. in 5% CO2 incubator overnight.
(§4) Dilution of a compound in DMSO (or water for injection) • (1) The compound was 5-fold diluted with DMSO from 10 mM to 2 mM, and then 4-fold diluted from 2 mM, to get 10 concentrations; • High control (HC, control without compound inhibition): 0.5% DMSO; • Low control (LC, control with compound inhibition): 1000 nM.
(§5) i. To each well, 99 μL growth medium containing 10% FBS was added, and then 1 μL diluted compound was added, the total volume of the well was […], and the final concentration of the compound was measured.
(§6) The test plate was left at room temperature, and equilibrated for 30 min. 80 μL culture medium was discarded. 60 μL CTG reagent (Celltiter-Glo kit) was added, and shaked for 2 min in a fast shaker, and was placed at room temperature for 10 min. The values were read by Envision instrument.

[3] = tested on: H1975 human non-small cell lung cancer xenograft; experiment: Pharmacodynamics in vivo, H1975 xenograft tumor-bearing nude mice; design: species or system BALB/c nude mouse; conditions: PO; for TV (tumor volume) / Body weight After administration / Body weight Before administration: mean ± standard error
Description: Genus: Rodent, Line: BALB/c nude, age: 6-8 weeks, gender: female, body weight: 18-22 g. Provider of experimental animals: Beijing Ankaiyibo Biological Technology Co. Ltd., Production license No. SCXK(Jing) 2012-0009. Quality Certificate No. 11402400000256 […] The tumor cells in logarithmic growth phase were used in tumor inoculation in vivo. […] When the tumor grew into a volume of about 100 mm^3, the animals were grouped and administered, 8 mice per group. […] Test compound solutions were prepared immediately before administration every day. [table] Vernier caliper was used to measure the volume of tumor twice a week. The long diameter and short diameter of tumor were measured. The volume was calculated by the formula: volume=0.5×long diameter×short diameter^2. According to the measurement results, relative tumor volume (RTV) and relative tumor volume increasing rate (T/C) were calculated. RTV=Vt/V0, wherein Vt is the average value of tumor volume on day t after grouping and administration, V0 is the average value of tumor volume at the day when grouping. T/C=TRTV/CRTV×100%, wherein TRTV is the RTV in the treatment group, and CRTV is the RTV in the solvent control group. […] One-Way ANOVA test was carried out by SPSS17.0 statistic software. Tumor volume was analysed in statistics among groups. P<0.05 is indicative of significant difference.

[4] = tested on: A431 cell (wild-type EGFR gene); experiment: In vitro cytologic activity, Celltiter-Glo, A431 cells; format: cell-based; conditions: Homo sapiens, A-431, 72 h
Description: as §1, §2, §3, §4, §5, §6

[5] = target: EGFR L858R (Homo sapiens (Human), UniProt P00533, L858R); experiment: Mobility Shift Assay, in vitro enzyme-inhibiting activity, EGFR L858R; format: biochemical; conditions: Table 5
Chain of EGFR L858R (P00533 25-1210 L858R): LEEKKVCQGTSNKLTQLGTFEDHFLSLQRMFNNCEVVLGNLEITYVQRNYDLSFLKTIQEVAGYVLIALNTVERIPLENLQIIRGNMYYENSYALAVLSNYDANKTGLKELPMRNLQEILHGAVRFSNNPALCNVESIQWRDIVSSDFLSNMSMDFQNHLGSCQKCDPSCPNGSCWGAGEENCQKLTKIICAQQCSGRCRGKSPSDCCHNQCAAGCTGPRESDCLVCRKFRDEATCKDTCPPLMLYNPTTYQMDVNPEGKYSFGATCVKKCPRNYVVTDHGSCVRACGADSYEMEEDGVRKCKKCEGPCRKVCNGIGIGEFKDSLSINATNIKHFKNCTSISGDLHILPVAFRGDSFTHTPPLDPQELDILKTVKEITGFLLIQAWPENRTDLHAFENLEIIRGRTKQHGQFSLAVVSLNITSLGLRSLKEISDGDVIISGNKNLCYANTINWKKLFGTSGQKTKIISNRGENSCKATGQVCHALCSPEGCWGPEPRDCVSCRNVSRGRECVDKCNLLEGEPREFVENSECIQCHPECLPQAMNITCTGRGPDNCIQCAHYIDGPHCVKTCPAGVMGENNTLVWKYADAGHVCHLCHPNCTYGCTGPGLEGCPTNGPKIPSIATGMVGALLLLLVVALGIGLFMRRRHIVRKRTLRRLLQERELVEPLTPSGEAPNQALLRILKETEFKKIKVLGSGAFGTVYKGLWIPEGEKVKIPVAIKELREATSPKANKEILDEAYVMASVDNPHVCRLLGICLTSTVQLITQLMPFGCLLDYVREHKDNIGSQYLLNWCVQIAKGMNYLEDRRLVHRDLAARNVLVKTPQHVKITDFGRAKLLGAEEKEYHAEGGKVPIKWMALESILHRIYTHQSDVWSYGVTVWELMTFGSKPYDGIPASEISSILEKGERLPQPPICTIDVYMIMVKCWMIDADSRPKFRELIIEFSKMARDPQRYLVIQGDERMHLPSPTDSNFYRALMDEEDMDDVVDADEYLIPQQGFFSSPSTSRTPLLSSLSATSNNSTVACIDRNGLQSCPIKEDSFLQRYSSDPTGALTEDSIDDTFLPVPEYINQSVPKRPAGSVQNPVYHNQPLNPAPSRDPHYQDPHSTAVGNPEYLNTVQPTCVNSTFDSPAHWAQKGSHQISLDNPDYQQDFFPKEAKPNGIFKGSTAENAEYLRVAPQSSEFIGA
Description: (§7) 1. Preparation of Reagents
(§8) 2. Preparation of a Compound Solution
(§9) (1) To the second well of a 96-well plate, 5 μL 10 mM compound (dissolved in DMSO) was added, and 95 μL 100% DMSO was added to prepare 100 μL 0.5 mM compound.
(§10) (2) To other wells, 60 μL 100% DMSO was added. 20 μL compound from the second well was added to the third well, and 4-fold dilution was further performed to get 10 diluted concentrations.
(§11) (3) To the first well and the twelfth well of the 96-well plate, 100 μL 100% DMSO was separately added, and the two wells were used as control wells.
(§12) (4) 10 μL from each well of the 96-well plate was added to another 96-well plate, and 90 μL 1-fold kinase buffer was added.
(§13) (5) 5 μL from the 96-well plate was added to another 384-well plate, for example, transferred from A1 well of the 96-well plate to A1 and A2 wells of the 384-well plate, and transferred from A2 well of the 96-well plate to A3 and A4 wells of the 384-well plate, and so on.
(§14) To 384-well plate, 10 μL 2.5-fold enzyme solution was added, and incubated at room temperature for 10 min.
(§15) (5) Kinase reaction and stop
(§16) After incubation at 28° C. for a period of time (depending on kinase), 25 μL stop solution was added.
(§17) 4. Data on percent conversion was read by Caliper.
(§18) (1) Data on enzyme activity was obtained by Caliper program;
(§19) (2) Inhibition rate of enzyme activity was calculated from the data on enzyme activity by the following formula: Inhibition rate(%)=(maximal value−the measured value of a test compound)/(maximal value-minimal value)×100,
(§20) wherein, the maximal value represents the measured value of DMSO control; and the minimal value represents the measured value of blank control.
(§21) (3) Calculation of IC50 value by XLFit excel.

[6] = target: EGFR T790M-L858R (Homo sapiens (Human), UniProt P00533, L858R/T790M); experiment: Mobility Shift Assay, in vitro enzyme-inhibiting activity, EGFR T790M-L858R; format: biochemical; conditions: Table 5
Chain of EGFR T790M-L858R (P00533 25-1210 T790M/L858R): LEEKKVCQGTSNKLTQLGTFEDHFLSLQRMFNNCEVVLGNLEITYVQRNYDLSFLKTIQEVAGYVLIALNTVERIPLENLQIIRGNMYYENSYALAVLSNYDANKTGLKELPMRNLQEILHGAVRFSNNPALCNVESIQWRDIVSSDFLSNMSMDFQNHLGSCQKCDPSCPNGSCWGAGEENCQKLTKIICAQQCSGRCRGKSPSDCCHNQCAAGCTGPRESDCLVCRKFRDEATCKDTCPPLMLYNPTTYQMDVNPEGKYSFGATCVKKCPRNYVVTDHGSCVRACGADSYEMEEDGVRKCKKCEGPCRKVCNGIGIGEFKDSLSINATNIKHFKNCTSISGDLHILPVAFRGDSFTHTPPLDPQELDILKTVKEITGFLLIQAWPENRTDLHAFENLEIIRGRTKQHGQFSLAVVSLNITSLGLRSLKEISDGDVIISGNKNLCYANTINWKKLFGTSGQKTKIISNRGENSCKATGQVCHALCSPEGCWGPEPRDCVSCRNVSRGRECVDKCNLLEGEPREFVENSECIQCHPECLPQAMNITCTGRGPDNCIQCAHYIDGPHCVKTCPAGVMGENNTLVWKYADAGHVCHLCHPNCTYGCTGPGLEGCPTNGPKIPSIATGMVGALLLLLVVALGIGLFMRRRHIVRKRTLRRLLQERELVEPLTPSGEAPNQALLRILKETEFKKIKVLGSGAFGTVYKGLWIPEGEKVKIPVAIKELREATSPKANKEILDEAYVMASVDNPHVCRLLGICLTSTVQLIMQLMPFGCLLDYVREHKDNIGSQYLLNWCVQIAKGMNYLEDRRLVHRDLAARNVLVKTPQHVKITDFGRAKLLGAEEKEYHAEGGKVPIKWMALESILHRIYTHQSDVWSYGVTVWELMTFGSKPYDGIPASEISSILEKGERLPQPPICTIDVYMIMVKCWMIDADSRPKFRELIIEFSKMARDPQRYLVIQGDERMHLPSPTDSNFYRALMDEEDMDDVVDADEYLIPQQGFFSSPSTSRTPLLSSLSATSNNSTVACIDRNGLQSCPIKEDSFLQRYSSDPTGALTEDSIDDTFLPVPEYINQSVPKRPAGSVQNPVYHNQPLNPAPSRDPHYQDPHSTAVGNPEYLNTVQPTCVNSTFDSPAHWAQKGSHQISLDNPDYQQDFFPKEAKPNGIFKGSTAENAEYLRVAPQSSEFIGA
Description: as §7, §8, §9, §10, §11, §12, §13, §14, §15, §16, §17, §18, §19, §20, §21

[7] = target: EGFR T790M (Homo sapiens (Human), UniProt P00533, T790M); experiment: Mobility Shift Assay, in vitro enzyme-inhibiting activity, EGFR T790M; format: biochemical; conditions: Table 1
Chain of EGFR T790M (P00533 25-1210 T790M): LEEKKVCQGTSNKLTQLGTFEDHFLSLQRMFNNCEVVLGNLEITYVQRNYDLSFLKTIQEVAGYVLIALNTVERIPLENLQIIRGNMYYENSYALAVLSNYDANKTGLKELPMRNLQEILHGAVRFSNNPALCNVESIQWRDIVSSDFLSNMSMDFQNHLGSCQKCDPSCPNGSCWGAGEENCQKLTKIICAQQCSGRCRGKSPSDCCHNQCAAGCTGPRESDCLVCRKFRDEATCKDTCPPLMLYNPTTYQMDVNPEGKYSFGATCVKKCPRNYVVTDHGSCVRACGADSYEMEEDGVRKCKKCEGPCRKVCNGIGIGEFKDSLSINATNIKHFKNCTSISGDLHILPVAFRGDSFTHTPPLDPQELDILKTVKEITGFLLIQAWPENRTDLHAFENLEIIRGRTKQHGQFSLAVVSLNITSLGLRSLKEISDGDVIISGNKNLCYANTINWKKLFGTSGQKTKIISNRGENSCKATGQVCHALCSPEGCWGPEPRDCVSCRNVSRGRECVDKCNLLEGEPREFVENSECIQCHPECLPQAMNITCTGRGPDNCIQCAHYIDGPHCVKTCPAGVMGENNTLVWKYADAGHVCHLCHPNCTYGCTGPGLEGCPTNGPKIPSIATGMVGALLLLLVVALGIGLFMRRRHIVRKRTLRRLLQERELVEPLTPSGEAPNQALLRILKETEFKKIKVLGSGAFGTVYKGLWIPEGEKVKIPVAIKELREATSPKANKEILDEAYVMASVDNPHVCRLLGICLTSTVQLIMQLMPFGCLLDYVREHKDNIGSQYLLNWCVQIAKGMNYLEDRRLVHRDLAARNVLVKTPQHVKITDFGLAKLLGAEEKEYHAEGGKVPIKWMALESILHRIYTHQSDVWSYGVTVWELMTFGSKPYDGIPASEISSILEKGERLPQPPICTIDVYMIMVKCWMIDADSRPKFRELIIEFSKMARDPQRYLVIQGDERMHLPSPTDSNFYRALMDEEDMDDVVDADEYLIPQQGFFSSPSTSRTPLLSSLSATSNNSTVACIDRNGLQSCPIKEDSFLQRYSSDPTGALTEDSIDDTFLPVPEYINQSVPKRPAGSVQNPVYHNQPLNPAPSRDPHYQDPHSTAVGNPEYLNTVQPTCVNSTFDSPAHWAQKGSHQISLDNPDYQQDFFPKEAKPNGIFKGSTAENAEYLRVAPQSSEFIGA
Description: as §7, §8, §9, §10, §11, §12, §13, §14, §15, §16, §17, §18, §19, §20, §21

[8] = target: EGFR (d746-750) (Homo sapiens (Human), UniProt P00533, DEL746-750); experiment: Mobility Shift Assay, in vitro enzyme-inhibiting activity, EGFR (d746-750); format: biochemical; conditions: Table 5
Chain of EGFR (d746-750) (P00533 other isoform, or with tags, fused parts or gaps del 1-668/del 746-750 limits assumed): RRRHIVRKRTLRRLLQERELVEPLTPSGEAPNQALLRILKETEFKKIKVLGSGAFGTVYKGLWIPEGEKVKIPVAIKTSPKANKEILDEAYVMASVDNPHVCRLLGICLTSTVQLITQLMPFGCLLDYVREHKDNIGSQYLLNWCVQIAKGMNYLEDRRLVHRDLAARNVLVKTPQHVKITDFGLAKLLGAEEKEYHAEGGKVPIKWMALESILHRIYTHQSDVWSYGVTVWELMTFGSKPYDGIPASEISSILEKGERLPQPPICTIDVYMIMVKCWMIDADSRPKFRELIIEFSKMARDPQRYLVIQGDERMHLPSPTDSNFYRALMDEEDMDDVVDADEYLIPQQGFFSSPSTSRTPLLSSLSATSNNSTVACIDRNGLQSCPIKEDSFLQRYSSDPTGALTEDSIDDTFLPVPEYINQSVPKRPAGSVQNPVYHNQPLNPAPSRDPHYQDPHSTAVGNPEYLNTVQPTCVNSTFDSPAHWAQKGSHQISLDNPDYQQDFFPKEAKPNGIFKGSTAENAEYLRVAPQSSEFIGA
Description: as §7, §8, §9, §10, §11, §12, §13, §14, §15, §16, §17, §18, §19, §20, §21

[9] = target: wild-type EGFR (WT EGFR) (Homo sapiens (Human), UniProt P00533); experiment: Mobility Shift Assay, in vitro enzyme-inhibiting activity, wild-type EGFR; format: biochemical; conditions: Km ATP
Description: as §7, §8, §9, §10, §11, §12, §13, §14, §15, §16, §17, §18, §19, §20, §21

C=CC(=O)Nc1cccc(Nc2nc(Nc3ccc(N4CCN(C(C)=O)CC4)cc3OC)ncc2C(F)(F)F)c1 [CO-1686, reference compound]
AUC(0-t) ([1]; iv, 5 mg/kg): 4070 ng·h/mL | clearance ([1]; iv, 5 mg/kg): 20.5 mL/min/kg | AUC(0-t) ([1]; po, 13.2 mg/kg): 2380 ng·h/mL | bioavailability ([1]; po, 13.2 mg/kg, read-out: F (absolute bioavailability)): 22.1% | IC50 ([2]; Table 9): 0.107 µM | IC50 ([2]; Table 10, unit inferred): 0.465 µM | TGI (tumor growth-inhibiting rate) ([3]; Table 17, 30 mg/kg): 38.8% | TV (tumor volume) ([3]; Table 17, 30 mg/kg, 19 days after inoculation): 666 ± 30 mm^3 | Body weight After administration ([3]; Table 17, 30 mg/kg): 22.1 ± 0.3 g | Body weight Before administration ([3]; Table 17, 30 mg/kg): 20.6 ± 0.3 g | TGI (tumor growth-inhibiting rate) ([3]; Table 17, 100 mg/kg): 71.2% | TV (tumor volume) ([3]; Table 17, 100 mg/kg, 19 days after inoculation): 317 ± 44 mm^3 | Body weight After administration ([3]; Table 17, 100 mg/kg): 21.5 ± 0.5 g | Body weight Before administration ([3]; Table 17, 100 mg/kg): 20.6 ± 0.4 g | TGI (tumor growth-inhibiting rate) ([3]; Table 18, 10 mg/kg, QD × 18): 30.8% | TV (tumor volume) ([3]; Table 18, 10 mg/kg, QD × 18, 23 days after inoculation): 729 ± 78 mm^3 | Body weight After administration ([3]; Table 18, 10 mg/kg, QD × 18): 22.4 ± 0.5 g | Body weight Before administration ([3]; Table 18, 10 mg/kg, QD × 18): 20.7 ± 0.4 g | TGI (tumor growth-inhibiting rate) ([3]; Table 18, 30 mg/kg, QD × 18): 55.4% | TV (tumor volume) ([3]; Table 18, 30 mg/kg, QD × 18, 23 days after inoculation): 485 ± 65 mm^3 | Body weight After administration ([3]; Table 18, 30 mg/kg, QD × 18): 22.4 ± 0.3 g | Body weight Before administration ([3]; Table 18, 30 mg/kg, QD × 18): 21.8 ± 0.3 g | IC50 ([4]; Table 9): 0.911 µM | IC50 ([4]; Table 10, unit inferred): 2.25 µM

C=CC(=O)Nc1cccc(Nc2nc(Nc3ccc(N4CCN(C(C)=O)CC4)cc3OC)ncc2C(F)(F)F)n1 [Compound 1, N-(6-((2-((4-(4-acetylpiperazin-1-yl)-2-methoxyphenyl)amino)-5-(trifluoromethyl)pyrimidin-4-yl)amino)pyridin-2-yl)acrylamide]
IC50 ([2]; Table 9): 0.0542 µM | Selectivity (A431/H1975) ([2]; Table 9, ratio of IC50): 8.3 | IC50 ([4]; Table 9): 0.448 µM | IC50 ([5]; Km ATP): 0.0847 µM | Selectivity WT/L858R ([5]; ratio of IC50): 2.8 | IC50 ([6]; Km ATP): 0.0044 µM | Selectivity WT/T790M-L858R ([6]; ratio of IC50): 54.3 | IC50 ([7]; Km ATP): 0.0057 µM | Selectivity (WT/T790M) ([7]; ratio of IC50): 56.7 | IC50 ([8]; Km ATP): 0.0203 µM | Selectivity WT/d746-750 ([8]; ratio of IC50): 11.8 | IC50 ([9]; Table 1): 0.323 µM | IC50 ([9]; Table 5): 0.24 µM
